Experimental data taken from patent US20100247461A1, “ANTI-INFLAMMATORY COMPLEXES” (Signum Biosciences, Inc., priority 2009, published 2010).

Assays:
Assay type in all cases: in vivo
[1] = tested on: TPA-treated mouse ears (edema, ear thickness); test: TPA mouse ear model of inflammation - edema inhibition; details: topical, 24 hours
[2] = tested on: MPO (myeloperoxidase), neutrophil marker; test: TPA mouse ear model of inflammation - MPO inhibition (dermal neutrophil infiltration); details: TPA-treated mouse ear
Experimental: Briefly, we homogenized 6mm biopsy punches taken from both compound-treated ears as well as TPA-treated and non-treated control groups. We quantitated the levels of MPO by a colorimetric reaction that was measured spectrophotometrically. The percent inhibition of neutrophil infiltration by each complex was determined by comparing the average MPO levels in the presence and absence of these compounds. The calculation for percent inhibition of MPO was determined similar to that as described for calculating the percent edema inhibition, see the Edema Inhibition protocol, supra.

[3] = tested on: TPA-treated mouse ears (edema, ear thickness); test: TPA mouse ear model of inflammation - edema inhibition; details: TPA-treated mouse ear
Experimental: In brief, mice were sedated and their ears were treated with 1.2 μg/20 uL TPA (i.e., tetradecanoylphorbol-13-acetate). After 5 minutes, we dosed these TPA-treated ears with a single 8 μg/20 μL dose, a 2 μg/20 μL dose, or both doses, of provided complexes. After 24 hours, the mice were sacrificed and edema was measured by taking micrometer readings of each ear. […] These values were corrected for the thickness of normal, non TPA-treated mouse ears of littermate controls.

[4] = tested on: TPA-treated mouse ears (erythema, Δa* redness); test: TPA mouse ear model of inflammation - erythema inhibition; details: topical, 24 hours
Experimental: The protocol for measuring erythema inhibition by provided complexes was developed in-house by utilizing the CR-400 chroma meter from Konica Minolta (2). This instrument was used to measure the Δa*redness value from 6 mm biopsy punches taken 24 hours post TPA/compound treatment as described in the edema inhibition section above. […] These values were corrected for the Δa* value of non TPA-treated mouse ears of littermate controls.

[5] = at the dose tested, AFC oil n=1, data not shown

Structure (SMILES): CC(=O)N[C@@H](CSC/C=C(\C)CC/C=C(\C)CCC=C(C)C)C(=O)O [AFC, N-acetyl-S-farnesyl-L-cysteine, reference compound]
- % Edema Inhibition in the Mouse Ear Inflammation Assay (4% concentration) [1]: +++ (“+++” indicates >50% inhibition of edema)
- inhibition of neutrophil infiltration [2, 5]: 55.90%
- ED50 in the MPO assay ([2]; several concentrations, inhibitory activity curves): 651 μg/ear
- % MPO Inhibition in the Mouse Ear Inflammation Assay (4% concentration) ([2]; topical, 4% concentration, 24 hours): ++ (“++” indicates a range of 40-80%)
- ED50 value for inhibiting neutrophil infiltration ([2]; topical, listed as AFC oil): 38.8 mM
- inhibition of edema [3, 5]: 56.35%
- ED50 for edema inhibition ([3]; topical, listed as AFC oil): 54.8 mM
- % Erythema Inhibition in the Mouse Ear Inflammation Assay (4% concentration) [4]: ++ (“++” indicates a range of 20-40%)
